Test results: the NIST ThermoML archive (doi:10.1021/je050328d)
“And” between values parts separate entries of the source, which are not always exact repeats. Equal entries are not always repeated.

Details: meniscus disappearance in a closed cell

CC(C)C [2-methylpropane]
Details | mass density
390.4 K, Liquid | 388.9 kg/m3
391.4 K, Gas | 90.6 kg/m3
393.73 K, Gas | 98.2 kg/m3
394.98 K, Gas | 101.1 kg/m3
397.49 K, Liquid | 358.7 kg/m3
398.81 K, Gas | 114.2 kg/m3
400.69 K, Liquid | 341.9 kg/m3
402.34 K, Liquid | 330.3 kg/m3
404.54 K, Gas | 142 kg/m3
405.22 K, Liquid | 308.1 kg/m3
406.17 K, Gas | 160.4 kg/m3
406.71 K, Liquid | 289.4 kg/m3
406.96 K, Liquid | 284.3 kg/m3
407.03 K, Gas | 173.9 kg/m3
407.21 K, Gas | 179.1 kg/m3
407.52 K, Liquid | 271 kg/m3
407.65 K, Gas | 192.9 kg/m3
407.75 K, Liquid | 244.3 kg/m3
407.76 K, Gas | 202.3 kg/m3
407.79 K, Gas | 219.3 kg/m3 and 225.4 kg/m3
407.8 K, Liquid | 229.4 kg/m3
